Data published in article PMC12406200, “Structural Basis of PPARγ-Mediated Transcriptional Repression by the Covalent Inverse Agonist FX-909” (Journal of Medicinal Chemistry, 2025).
pEC50, pIC50: −log10 of the molar value.

Tests used:
[1] = molecular target: T1, full-length human PPARγ (isoform 2) (Homo sapiens, UniProt P37231); assay: Transcriptional reporter assay (3xPPRE-luciferase) in HEK293T cells transfected with full-length PPARγ; type: cell-based; conditions: for pIC50: full-length PPARγ + 3xPPRE-luciferase, 18 h treatment, n = 4, three-parameter fit, read-out: cellular IC50 (decrease in PPARγ-mediated transcription)
T1 construct: full-length human PPARγ (isoform 2) expression plasmid; expressed in transfected cells; host or cells: HEK293T (ATCC #CRL-11268)
T1 sequence (P37231 1-505): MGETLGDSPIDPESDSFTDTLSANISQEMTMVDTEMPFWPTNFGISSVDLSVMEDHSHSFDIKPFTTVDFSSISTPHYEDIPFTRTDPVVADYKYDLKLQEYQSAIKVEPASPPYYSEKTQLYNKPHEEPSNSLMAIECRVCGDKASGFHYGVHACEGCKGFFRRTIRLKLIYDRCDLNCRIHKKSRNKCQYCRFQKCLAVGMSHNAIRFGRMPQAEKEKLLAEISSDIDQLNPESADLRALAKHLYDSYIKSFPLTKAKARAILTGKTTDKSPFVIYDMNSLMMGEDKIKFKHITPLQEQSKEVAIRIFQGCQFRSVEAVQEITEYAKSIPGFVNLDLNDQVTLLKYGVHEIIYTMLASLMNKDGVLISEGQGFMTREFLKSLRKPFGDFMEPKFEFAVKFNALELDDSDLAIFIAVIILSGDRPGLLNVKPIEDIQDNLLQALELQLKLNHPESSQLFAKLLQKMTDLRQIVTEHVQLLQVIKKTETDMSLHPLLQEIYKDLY
Method: 1 Pharmacological PPARγ ligand set used in this study. (A) Chemical structures and pharmacological properties of the ligands. […] (B) Transcriptional reporter assay performed in HEK293T cells transfected with a full-length PPARγ expression plasmid and a 3xPPRE-luciferase reporter plasmid. Data were normalized to cells treated with DMSO control, represented as mean ± s.d.
After an 18 h incubation, cells were transferred to white 384-well cell culture plates (Thermo Fisher Scientific) at 10,000 cells/well in 20 μL total volume/well. After a 4 h incubation, cells were treated in quadruplicate with 20 μL of either vehicle control (1.5% DMSO in DMEM) or a 3-fold serial dilution of ligands (1 μM highest ligand concentration). After a final 18 h incubation, cells were harvested with 20 μL of Britelite Plus (PerkinElmer), and luminescence was measured on a BioTek Synergy Neo multimode plate reader. Data were plotted in GraphPad Prism as luminescence vs ligand concentration as mean ± s.d. (n = 4) and fit to a three-parameter sigmoidal dose–response curve equation.

[2] = molecular target: T2, PPARγ LBD / NCoR1 corepressor peptide (Homo sapiens, UniProt P37231); assay: TR-FRET coregulator interaction assay, NCoR1 corepressor peptide; type: biochemical; conditions: for pEC50: 4 nM 6xHis-PPARγ LBD, 400 nM FITC-NCoR1 peptide, 1 h at 25 °C, n = 3, read-out: NCoR1 TR-FRET EC50 (increase in NCoR1 peptide interaction)
T2 construct: residues 203–477 (isoform 1 numbering) with a TEV-cleavable N-terminal hexa-his-tag; made in house; host or cells: Escherichia coli BL21(DE3), pET46 plasmid
T2 sequence (P37231 203-477 isoform P37231-2): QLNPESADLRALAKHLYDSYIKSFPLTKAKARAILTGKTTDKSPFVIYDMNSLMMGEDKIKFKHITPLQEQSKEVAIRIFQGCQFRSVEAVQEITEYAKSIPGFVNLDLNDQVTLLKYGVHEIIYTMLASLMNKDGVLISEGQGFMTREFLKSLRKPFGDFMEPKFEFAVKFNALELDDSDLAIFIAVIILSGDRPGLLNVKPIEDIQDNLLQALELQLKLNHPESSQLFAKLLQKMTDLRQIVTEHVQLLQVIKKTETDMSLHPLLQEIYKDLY
Description: (§1) We next characterized the ligand set using biochemical assays that report on ligand-dependent changes in the interaction between PPARγ LBD and FITC-labeled peptides derived from NR coregulator proteins that contribute to PPARγ-mediated transcription in cells, including the TRAP220/MED1 coactivator and NCoR1 corepressor. We used time-resolved fluorescence resonance energy transfer (TR-FRET) assays to determine relative ligand potency (or covalent reactivity) and efficacy (via increased or decreased TR-FRET ratio values). […] We performed fluorescence polarization (FP) assays to directly measure binding affinities between the PPARγ LBD and coregulator peptides.
(§2) 2 Biochemical coregulator profiling data. Time-resolved fluorescence resonance energy transfer (TR-FRET) coregulator interaction assay performed with (A) the NCoR1 corepressor peptide or (B) the TRAP220/MED1 coactivator peptide in the presence of the indicated ligands. Data represent mean ± s.e.m. […] Fluorescence polarization (FP) binding assay performed with (C) NCoR1 corepressor peptide or (D) TRAP220/MED1 coactivator peptide in the presence of the indicated ligands. Data represent mean ± s.e.m. […] (E) Pairwise correlation plots between PPARγ-mediated transcription (y-axis) and biochemical coregulator profiling data (x-axis). Spearman correlation coefficients (r p) and associated two-tailed p values are listed.
(§3) Time-resolved fluorescence resonance energy transfer (TR-FRET) coregulator peptide interaction assays were performed in low-volume black 384-well plates (Greiner) using a 23 μL final well volume. Each well contained 4 nM protein (WT or mutant 6xHis-PPARγ LBD), 1 nM LanthaScreen Elite Tb-anti-His Antibody (ThermoFisher #PV5895), and 400 nM FITC-labeled TRAP220/MED1 and NCoR1 peptide in a buffer containing 20 mM potassium phosphate (pH 7.4), 50 mM KCl, 5 mM TCEP, and 0.005% Tween 20. Ligand stocks were prepared via serial dilution in DMSO, added to wells in triplicate (10 μM highest final ligand concentration), and plates were read using BioTek Synergy Neo multimode plate reader after incubation for 1 h at 25 °C.

[3] = molecular target: T3, PPARγ LBD / TRAP220/MED1 coactivator peptide (Homo sapiens, UniProt P37231); assay: TR-FRET coregulator interaction assay, TRAP220/MED1 coactivator peptide; type: biochemical; conditions: for pIC50: 4 nM 6xHis-PPARγ LBD, 400 nM FITC-TRAP220/MED1 peptide, 1 h at 25 °C, n = 3, read-out: MED1 TR-FRET IC50 (decrease in TRAP220/MED1 peptide interaction)
T3 construct: residues 203–477 (isoform 1 numbering) with a TEV-cleavable N-terminal hexa-his-tag; made in house; host or cells: Escherichia coli BL21(DE3), pET46 plasmid
T3 sequence (P37231 203-477 isoform P37231-2): T2 sequence (P37231 203-477 isoform P37231-2)
Description: as §1, §2, §3

pIC50 [1]	pEC50 [2]	pIC50 [3]	effect on PPARγ-mediated transcription (in words) ([1]; 3xPPRE-luciferase reporter)	effect on NCoR1 corepressor peptide interaction, TR-FRET efficacy (in words) ([2]; TR-FRET ratio)	effect on TRAP220/MED1 coactivator peptide interaction, TR-FRET efficacy (in words) ([3]; TR-FRET ratio)	SMILES
8.88	7.48	7.80				CS(=O)(=O)c1ccc(C#N)cc1-c1cc(=O)c2c(F)cc(F)cc2[nH]1 [FX-909, 3-(5,7-difluoro-4-oxo-1,4-dihydroquinolin-2-yl)-4-(methylsulfonyl)benzonitrile]
	7.77		no change in activity	relatively little change in efficacy	relatively little change in efficacy	O=C(Nc1ccccc1)c1cc([N+](=O)[O-])ccc1Cl [GW9662]
8.80	7.77	8.30				N#Cc1ccc(NC(=O)c2cc([N+](=O)[O-])ccc2Cl)cn1 [SR33068]
